The record followed here is ChEMBL document CHEMBL1201862, “PubChem BioAssay data set” (2004).

Structures are written as SMILES.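 Cultured in 96-well plates, cells were exposed to test compound for 48 hours across five concentrations. GI50 marks 50% less growth.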 Calls of active or inactive are those of the source. Cut-off read from the data, not from the text of the source: active = GI50 up to about 1.1 µM and inactive = higher. Bounds are passed on as bounds.

Common to all, as to experiment: NCI tumour cell line growth inhibition, 48 h
The test system of experiment [1] is 786-0.
Experiment [2] has as its system A549.
The subject of experiment [3] is COLO 205.
In experiment [4] the test system is HCC 2998.
Experiment [5] deals with HCT-15.
In experiment [6] the test system is HOP-92.
For experiment [7], the system named is HT-29.
In experiment [8] the test system is LOX IMVI.
The test system of experiment [9] is MDA-N.
For experiment [10], the system named is NCI-H226.
In experiment [11] the test system is NCI-H23.
The subject of experiment [12] is NCI-H460.
For experiment [13], the system named is NCI/ADR-RES.
Experiment [14] relates to OVCAR-3.
Experiment [15] relates to SF-295.
Experiment [16] relates to SK-OV-3.
Experiment [17] relates to SN12C.
Experiment [18] relates to SR.
For experiment [19], the system named is T47D.
The test system of experiment [20] is SW-620.

For the molecule `CC(C)[C@]12O[C@H]1[C@@H]1O[C@@]13[C@@]1(C)CCC4=C(COC4=O)[C@@H]1C[C@@H]1O[C@@]13C2=O` [TRIPTONIDE], the GI50 is 0.0248 µM (active) in experiment [1]; 0.0384 µM (active) in experiment [2]; < 0.0113 µM (active) in experiment [3]; 0.029 µM (active) in [4]; 0.0251 µM in [5]; 0.0237 µM (active) in [6]. In addition, the GI50 in experiment [7] is < 0.01 µM (active); in [8], < 0.01 µM (active); in experiment [9] it was < 0.0113 µM (active); in experiment [10] it was < 0.0193 µM (active); in [11] it was < 0.01 µM (active); in experiment [12], < 0.01 µM (active). The GI50 in [13] was 0.0386 µM (active); in [14] it was < 0.0133 µM (active); in [15], 0.0771 µM (active); in experiment [16], 0.0397 µM (active); in [17] it was < 0.0172 µM (active); in experiment [18], < 0.01 µM (active). For the same molecule, the GI50 in [19] was 0.0238 µM (active).

For `CCC(C)C(C(=O)N/N=C1/SCC(=O)N1c1ccccc1)C(=O)N/N=C1/SCC(=O)N1c1ccccc1` (centres undefined), the GI50 was > 100 µM (inactive) in [1]; > 100 µM (inactive) in experiment [2]; > 100 µM (inactive) in experiment [3]; > 100 µM (inactive) in experiment [4]; greater than 100 µM in experiment [5]; 19 µM (inactive) in [6]. Moreover, the GI50 in experiment [7] was > 100 µM (inactive); in [8], 38.4 µM (inactive); in [9], 27.2 µM (inactive); in experiment [11] it was 36.6 µM (inactive); in [12] it was > 100 µM (inactive); in [13], > 100 µM (inactive). Besides, the GI50 in [14] is 28.6 µM (inactive); in experiment [15] it was > 100 µM (inactive); in [16] it was 22.2 µM (inactive); in experiment [17] it was > 100 µM (inactive); in experiment [18], 40.6 µM (inactive); in [20], 41.9 µM (inactive). The GI50 in [19] was > 100 µM (inactive).

Consider `c1ccc(-c2nn(-c3ccccc3)[n+](-c3ccccc3)n2)cc1` [TETRAZOLIUM RED], for which the GI50 in experiment [1] was 14.3 µM (inactive); in [2] it was 23.9 µM (inactive); in experiment [4], 1.53 µM (inactive); in [5], greater than 100 µM; in experiment [6], 24.1 µM (inactive); in experiment [7], 18.6 µM (inactive). Also, the GI50 in [8] is 11.9 µM (inactive); in [9], 12.9 µM (inactive); in experiment [10], 24.5 µM (inactive); in [11] it was 7.29 µM (inactive); in experiment [12], 21.1 µM (inactive); in [13], > 100 µM (inactive). The GI50 is 0.191 µM (active) in experiment [14]; > 56.1 µM (inactive) in experiment [15]; > 100 µM (inactive) in experiment [16]; 9.59 µM (inactive) in experiment [17]; 3.37 µM (inactive) in experiment [18]; 16.1 µM (inactive) in [20]. Also, the GI50 in experiment [19] is > 100 µM (inactive).

Regarding `CCOC(=O)c1nc2ccccc2nc1Oc1cc(OC)c(OC)c(OC)c1`, the GI50 is 38.1 µM (inactive) in experiment [1]; > 100 µM (inactive) in experiment [2]; > 100 µM (inactive) in [3]; > 100 µM (inactive) in experiment [4]; greater than 100 µM in experiment [5]; 47.6 µM (inactive) in experiment [6]. Further, the GI50 in [7] is > 100 µM (inactive); in experiment [8], > 100 µM (inactive); in experiment [9], > 100 µM (inactive); in [11], 87.3 µM (inactive); in experiment [12], > 100 µM (inactive); in experiment [13], > 100 µM (inactive). The GI50 in [14] was > 100 µM (inactive); in experiment [15], 45.2 µM (inactive); in experiment [17], > 100 µM (inactive); in [18], > 100 µM (inactive); in experiment [20], > 100 µM (inactive); in experiment [19], > 100 µM (inactive).

For the molecule `CC1=C/C(=N\N(C)C)C(C(O)(C(F)(F)F)C(F)(F)F)C(C)(C)C1` (centres undefined), the GI50 in experiment [1] was > 100 µM (inactive); in experiment [2], > 100 µM (inactive); in [3], > 100 µM (inactive); in experiment [4] it was > 100 µM (inactive); in [5], greater than 100 µM; in experiment [6] it was 0.169 µM (active). The GI50 in experiment [7] was > 100 µM (inactive); in [8], > 100 µM (inactive); in experiment [9], > 100 µM (inactive); in experiment [10], > 100 µM (inactive); in [11], 69.7 µM (inactive); in [12], > 100 µM (inactive). In addition, the GI50 in [13] was > 100 µM (inactive); in experiment [14], 26.4 µM (inactive); in experiment [15], > 100 µM (inactive); in [17] it was > 100 µM (inactive); in experiment [18], > 100 µM (inactive); in [20] it was > 100 µM (inactive). Besides, in experiment [19], the GI50 is > 100 µM (inactive).

Turning to `CCOC(=O)c1nc2ccccc2nc1Nc1ccc(OC)c(OC)c1`, the GI50 in experiment [1] was 77.1 µM (inactive); in [2], > 100 µM (inactive); in experiment [3], > 100 µM (inactive); in experiment [4] it was > 100 µM (inactive); in experiment [5], greater than 100 µM; in [6], 62.7 µM (inactive). Also, the GI50 in [7], in [9], in experiment [11], in experiment [12], in [13] and in [14] was > 100 µM (inactive) throughout. Also, the GI50 in experiment [15], in experiment [16], in [17], in [18] and in experiment [19] was > 100 µM (inactive) each time.

In the case of `O=C(Nc1nncs1)NS(=O)(=O)n1c(=S)sc2ccccc21`, the GI50 in experiment [1] was > 100 µM (inactive); in experiment [2] it was > 100 µM (inactive); in [3] it was > 100 µM (inactive); in experiment [4], > 100 µM (inactive); in experiment [5], greater than 100 µM; in experiment [6], > 100 µM (inactive). Besides, the GI50 in experiment [7], in [8], in experiment [9], in experiment [11], in [12] and in experiment [13] was > 100 µM (inactive) throughout. Further, the GI50 in [14] is > 100 µM (inactive); in [15], > 100 µM (inactive); in experiment [16] it was > 100 µM (inactive); in experiment [17], > 100 µM (inactive); in experiment [18] it was 36.4 µM (inactive); in experiment [20] it was > 100 µM (inactive). Besides, in experiment [19], the GI50 is 88.9 µM (inactive).

Take `COc1ccc(C(=O)/C=C/c2ccc(OCC#N)cc2)cc1`: the GI50 was 42.2 µM (inactive) in [1]; 28.5 µM (inactive) in experiment [2]; 21.7 µM (inactive) in [3]; 17.3 µM (inactive) in experiment [4]; 23.3 µM in [5]; 29 µM (inactive) in experiment [6]. Besides, the GI50 in [7] is 33.3 µM (inactive); in [9] it was > 10 µM (inactive); in experiment [10], 24.7 µM (inactive); in [11] it was 21.3 µM (inactive); in experiment [12] it was 27.3 µM (inactive); in experiment [13], 20.9 µM (inactive). Moreover, the GI50 in experiment [14] was 30.8 µM (inactive); in experiment [15] it was 41 µM (inactive); in [16], 43.3 µM (inactive); in [17] it was 19.9 µM (inactive); in [18], 22.7 µM (inactive); in experiment [20], 17.3 µM (inactive). Moreover, in experiment [19], the GI50 was 14.9 µM (inactive).

On to `O=c1[nH]c2nc3ccccc3c(=O)n2/c1=C/c1cccs1`, for which the GI50 in experiment [1] was > 100 µM (inactive); in experiment [2], > 100 µM (inactive); in experiment [3], > 100 µM (inactive); in experiment [4], > 100 µM (inactive); in [5], greater than 100 µM; in experiment [6], 87.7 µM (inactive). Moreover, the GI50 in experiment [7], in experiment [8], in experiment [9], in [10], in experiment [11] and in experiment [13] was > 100 µM (inactive) in each case. In addition, the GI50 in experiment [14], in [15], in experiment [16], in experiment [17], in experiment [18] and in [20] was > 100 µM (inactive) in each case. Further, in [19], the GI50 was 69.7 µM (inactive).

Turning to `O=c1c2ccc(Cl)cc2oc2c(CNc3ccc(S(=O)(=O)Nc4ncccn4)cc3)cccc12`, the GI50 in experiment [1] is > 100 µM (inactive); in [2], > 100 µM (inactive); in experiment [3] it was > 100 µM (inactive); in experiment [4] it was > 100 µM (inactive); in [5], greater than 100 µM; in experiment [6], > 100 µM (inactive). The GI50 in experiment [7], in experiment [8], in [9], in experiment [10], in experiment [11] and in experiment [13] was > 100 µM (inactive) each time. Moreover, the GI50 in experiment [14], in experiment [15], in [16], in experiment [17], in experiment [18] and in [20] was > 100 µM (inactive) throughout. Also, the GI50 in experiment [19] was > 100 µM (inactive).

`Cc1cc(S(=O)(=O)N/C(=C(\C#N)C(=O)c2ccc(Cl)cc2)[n+]2ccc(N(C)C)cc2)c([S-])cc1Cl`: the GI50 in experiment [1] is > 100 µM (inactive); in experiment [2], 37.6 µM (inactive); in [3], > 100 µM (inactive); in experiment [4], 83 µM (inactive); in [5], 48.6 µM; in [6], < 0.01 µM (active). Further, the GI50 in experiment [7] was 30.1 µM (inactive); in experiment [9], > 100 µM (inactive); in [10], > 100 µM (inactive); in [12], 42.6 µM (inactive); in experiment [13], 73.3 µM (inactive); in experiment [14] it was 45.1 µM (inactive). Also, the GI50 is 62.2 µM (inactive) in experiment [15]; 30.5 µM (inactive) in experiment [16]; > 100 µM (inactive) in experiment [17]; 41.3 µM (inactive) in experiment [18]; > 100 µM (inactive) in [19].
